Results as given in patent publication US11753407B2, “Compounds for treating spinal muscular atrophy” (PTC Therapeutics, Inc., priority 2012, dated 2023).

Assays:
[1] = system: Smn protein in SMA patient fibroblast cells (GM03813); assay: Smn protein assay in cultured cells (SMN HTRF); type: cell-based, human; settings: SMA patient fibroblast cells, 48 hours; for EC1.5x for Smn protein expression: 7-point concentration curve, SMN HTRF, concentration producing 1.5 times Smn protein vs DMSO vehicle control; for maximum fold (Fold) increase of Smn protein: 7-point concentration data, fold relative to vehicle control
Method in brief: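 Patient-derived SMA fibroblasts are plated, given compound for 48 h, then lysed in RIPA buffer with protease inhibitors. Lysate Smn is detected by an anti-SMN d2/kryptate HTRF pair incubated overnight. The normalized ΔF is divided by the vehicle ΔF to give fold change, from which EC1.5× and maximum fold are taken.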

[2] = system: SMN2 minigene mRNA (SMN2-A minigene) in HEK293H cells; assay: SMN2 minigene mRNA splicing RT-qPCR assay in cultured cells; type: cell-based, human; settings: Homo sapiens, HEK293-H; concentration increasing full length SMN2 mRNA 1.5-fold relative to vehicle-treated cells; HEK293H cells with SMN2-A minigene, 24 hours, 7-point concentration data; read-out: EC1.5x for production of full length SMN2 mRNA
Method in brief: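 Cells are seeded, left to attach 4-6 h, then dosed with test compound across seven concentrations and incubated 24 h. Lysates undergo RT-qPCR with primers/probe specific to the exon 7-containing minigene transcript, co-amplified with GAPDH. Fold change over vehicle is calculated, and EC1.5× marks the 1.5-fold point.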

Structure (SMILES)	EC1.5x for Smn protein expression [1]	maximum fold (Fold) increase of Smn protein [1]	melting point	EC (1.5-fold increase) [2]
Cc1nc2ccc(-c3cc(=O)n4cc(C5=CCN(C)CC5)ccc4n3)cc2o1 [Compound 303, 2-(2-methyl-1,3-benzoxazol-6-yl)-7-(1-methyl-1,2,3,6-tetrahydropyridin-4-yl)-4H-pyrido[1,2-a]pyrimidin-4-one]	**** (an EC1.5x≤0.3 μM is indicated by four stars (****))	**** (a fold increase between >1.5 and ≤1.65 is indicated by four stars (****))	132 to 135 °C	< 0.1 µM
CCN1CC=C(c2ccc3nc(-c4ccc5nc(C)oc5c4)cc(=O)n3c2)CC1 [Compound 304, 7-(1-ethyl-1,2,3,6-tetrahydropyridin-4-yl)-2-(2-methyl-1,3-benzoxazol-6-yl)-4H-pyrido[1,2-a]pyrimidin-4-one]	**** (an EC1.5x≤0.3 μM is indicated by four stars (****))	***** (a fold increase >1.65 is indicated by five stars (*****))	128 to 131 °C	< 0.1 µM
Cc1nc2c(F)cc(-c3cc(=O)n4cc(N5CCNCC5)ccc4n3)cc2o1 [Compound 305, 2-(4-fluoro-2-methyl-1,3-benzoxazol-6-yl)-7-(piperazin-1-yl)-4H-pyrido[1,2-a]pyrimidin-4-one]	**** (an EC1.5x≤0.3 μM is indicated by four stars (****))	***** (a fold increase >1.65 is indicated by five stars (*****))	184 to 186 °C	< 0.1 µM
Cc1nc2c(F)cc(-c3cc(=O)n4cc(N5CCN(C)[C@@H](C)C5)ccc4n3)cc2o1 [Compound 307, 7-[(3S)-3,4-dimethylpiperazin-1-yl]-2-(4-fluoro-2-methyl-1,3-benzoxazol-6-yl)-4H-pyrido[1,2-a]pyrimidin-4-one]	**** (an EC1.5x≤0.3 μM is indicated by four stars (****))	**** (a fold increase between >1.5 and ≤1.65 is indicated by four stars (****))	194 to 196 °C	< 0.1 µM
CCN1CCN(c2ccc3nc(-c4cc(F)c5nc(C)oc5c4)cc(=O)n3c2)CC1 [Compound 309, 7-(4-ethylpiperazin-1-yl)-2-(4-fluoro-2-methyl-1,3-benzoxazol-6-yl)-4H-pyrido[1,2-a]pyrimidin-4-one]	**** (an EC1.5x≤0.3 μM is indicated by four stars (****))	**** (a fold increase between >1.5 and ≤1.65 is indicated by four stars (****))	212 to 214 °C	< 0.1 µM
CCCN1CCN(c2ccc3nc(-c4cc(F)c5nc(C)oc5c4)cc(=O)n3c2)CC1 [Compound 310, 2-(4-fluoro-2-methyl-1,3-benzoxazol-6-yl)-7-(4-propylpiperazin-1-yl)-4H-pyrido[1,2-a]pyrimidin-4-one]	*** (an EC1.5× between >0.3 μM and ≤1 μM is indicated by three stars (***))	*** (a fold increase between >1.35 and ≤1.5 is indicated by three stars (***))	175 to 178 °C	< 0.1 µM
CCN1C[C@@H]2CN(c3ccc4nc(-c5ccc(OC)c(F)c5)cc(=O)n4c3)C[C@@H]2C1 [Compound 311, 7-[(3aR,6aS)-5-ethylhexahydropyrrolo[3,4-c]pyrrol-2(1H)-yl]-2-(3-fluoro-4-methoxyphenyl)-4H-pyrido[1,2-a]pyrimidin-4-one]	–	** (a fold increase between >1.2 and ≤1.35 is indicated by two stars (**))	157 to 167 °C	0.1 to 0.3 µM
COc1ccc(-c2cc(=O)n3cc(C4=CCNCC4)cc(C)c3n2)cc1F [Compound 312, 2-(3-fluoro-4-methoxyphenyl)-9-methyl-7-(1,2,3,6-tetrahydropyridin-4-yl)-4H-pyrido[1,2-a]pyrimidin-4-one]	**** (an EC1.5x≤0.3 μM is indicated by four stars (****))	**** (a fold increase between >1.5 and ≤1.65 is indicated by four stars (****))	211 to 215 °C	< 0.1 µM
